Assay [1] has as its target T1, Kelch-like ECH-associated protein 1 (Keap1) (Homo sapiens, UniProt Q14145).
T1 construct: Kelch-repeat domain
As to the kind of experiment: FP competition with FITC-(βAla)-DEETGEF-OH; thermal shift (ΔTm […] °C at […]). Format: binding.

Assay [2] concerns the target T1, Kelch-like ECH-associated protein 1 (Keap1). The assay is described as above. Format: binding. This is another data set of the same source.

The values below come from article PMC6214812, “The mycosporine-like amino acids porphyra-334 and shinorine are antioxidants and direct antagonists of Keap1-Nrf2 binding” (Biochimie, 2018).

Like-named read-outs stand apart in the source and are kept apart here.

T1 sequence (Q14145 321-609 limits assumed): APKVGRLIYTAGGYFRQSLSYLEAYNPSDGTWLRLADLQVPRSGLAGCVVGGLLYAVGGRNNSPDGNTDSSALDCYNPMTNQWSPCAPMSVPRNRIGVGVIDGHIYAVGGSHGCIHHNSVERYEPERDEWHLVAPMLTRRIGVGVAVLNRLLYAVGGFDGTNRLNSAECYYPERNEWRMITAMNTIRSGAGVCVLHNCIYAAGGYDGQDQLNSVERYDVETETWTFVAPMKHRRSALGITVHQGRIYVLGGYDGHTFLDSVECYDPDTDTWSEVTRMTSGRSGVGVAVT

With `COC1=C(NCC(=O)O)C[C@@](O)(CO)C/C1=N\[C@@H](CO)C(=O)O` [shinorine], the IC50 in assay [1] is roughly 100 µM. Turning to `COC1=C(NCC(=O)O)CC(O)(CO)CC1=NC(C(=O)O)C(C)O` (centres unmarked) [porphyra-334], the half-maximal inhibitory concentration (IC50) in assay [2] is roughly 100 µM.

A word on the IC50: it is the concentration at which inhibition is half-maximal.
